For series [1], the system named is influenza. Nature of the series: anti-influenza potency. Type of series: cell-based.
The conditions of series [2]: BALB/C, mouse, in vivo.

In series [1], `O=C(O)C1C2CCC(CC2)C1n1cc(F)c2cnc(-c3c[nH]c4ncc(Cl)cc34)nc21` (centres unmarked) [Compound 1, 3-(2-(5-chloro-1H-pyrrolo[2,3-b]pyridin-3-yl)-5-fluoro-7H-pyrrolo[2,3-d]pyrimidin-7-yl)bicyclo[2.2.2]octane-2-carboxylic acid] returned an EC50 of 0.1 to 3 nM. For the same molecule, the “drug level excess of the therapeutic dose (anti-influenza potency EC50)” value in series [2] is listed as “at least 100 fold”.

The values are drawn from patent publication US12156876B2, “Formulations of influenza therapeutics” (priority 2018, dated 2024).
